This is an account of results in paper doi:10.1101/2024.03.05.583521v1 (biorxiv, 2024).

For series [1], the target named is T1, PIB-1 (Pseudomonas aeruginosa, UniProt Q9HT32).
T1 sequence (Q9HT32 28-414): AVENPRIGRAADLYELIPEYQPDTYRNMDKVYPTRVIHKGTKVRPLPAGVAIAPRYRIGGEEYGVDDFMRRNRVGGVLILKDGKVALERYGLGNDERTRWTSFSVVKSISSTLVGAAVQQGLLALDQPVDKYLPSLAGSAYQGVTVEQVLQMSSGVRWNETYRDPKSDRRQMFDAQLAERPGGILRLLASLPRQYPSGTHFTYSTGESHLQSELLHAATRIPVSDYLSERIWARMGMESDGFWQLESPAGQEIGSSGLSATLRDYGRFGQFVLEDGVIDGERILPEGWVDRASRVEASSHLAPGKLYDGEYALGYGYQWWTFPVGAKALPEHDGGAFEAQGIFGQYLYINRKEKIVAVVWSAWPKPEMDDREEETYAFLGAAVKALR
Briefly: isothermal titration calorimetry. The class given is binding.

Series [2] addresses T1, PIB-1. Briefly: intrinsic protein fluorescence quenching. It is filed as binding.
Substrate in the series “purified protein”: O=C(Cc1cccs1)N[C@@H]1C(=O)N2C(C(=O)O)=C(/C=C/c3ccc([N+](=O)[O-])cc3[N+](=O)[O-])CS[C@H]12
Briefly: purified protein. The following applies: no added metal, 10 mM Na-HEPES pH 7.5, 100 mM NaCl, 37 °C.

A word on the Kd: it is the constant that tells how readily two partners part at equilibrium. In turn, `C[C@@H](O)[C@H]1C(=O)N2C(C(=O)O)=C(SCCN=CN)C[C@H]12` [imipenem] showed a Kd at PIB-1 [1] of 79.8 ± 5.9 µM.

`C[C@@H](O)[C@H]1C(=O)N2C(C(=O)O)=C(S[C@@H]3CN[C@H](C(=O)N(C)C)C3)[C@H](C)[C@H]12` [meropenem]: binding at PIB-1 [2] was put at a Kd of 74.8 ± 10.3 µM.

B1: PIB-1 (Pseudomonas aeruginosa PAO1) (protein)
chain: AVENPRIGRAADLYELIPEYQPDTYRNMDKVYPTRVIHKGTKVRPLPAGVAIAPRYRIGGEEYGVDDFMRRNRVGGVLILKDGKVALERYGLGNDERTRWTSFSVVKSISSTLVGAAVQQGLLALDQPVDKYLPSLAGSAYQGVTVEQVLQMSSGVRWNETYRDPKSDRRQMFDAQLAERPGGILRLLASLPRQYPSGTHFTYSTGESHLQSELLHAATRIPVSDYLSERIWARMGMESDGFWQLESPAGQEIGSSGLSATLRDYGRFGQFVLEDGVIDGERILPEGWVDRASRVEASSHLAPGKLYDGEYALGYGYQWWTFPVGAKALPEHDGGAFEAQGIFGQYLYINRKEKIVAVVWSAWPKPEMDDREEETYAFLGAAVKALR
One may read the Km as the substrate concentration at which the rate is half of its maximum. Usually kcat stands for the maximal rate divided by the concentration of active sites. For the molecule B1, in the series “purified protein”, the Km was found to be 95.3 ± 8.9 µM and the kcat amounted to 0.0041 ± 0.0005 s⁻¹.
